How the values were obtained:
PANC0403 (KRAS G12D) = test: Cell proliferation assay Method B (5 days), PANC0403; type: cell-based; settings: Homo sapiens, Panc 04.03, 120 h, 96-well, read-out: Anti-Cell Proliferation IC50 (nM), PANC0403
Method: (§1) Method B: Two thousand KRAS mutant cells per well were seeded in 96-well black plate and then treated with indicated compounds for 5 days at 37° C. and 5% CO2. Cell proliferation was measured using CellTiter-Glo 2.0 luciferase-based ATP detection assay (Promega, Madison, WI) following the manufacturer's protocol. IC50 values were determined using Prism software (GraphPad Software, San Diego, CA).

AGS (KRAS G12D) = test: Cell proliferation assay Method B (5 days), AGS; type: cell-based; settings: 120 h, 96-well, read-out: Anti-Cell Proliferation IC50 (nM), AGS
Method: as §1

CAPAN-2 (KRAS G12V) = test: Cell proliferation assay Method B (5 days), CAPAN-2; type: cell-based; settings: Homo sapiens, Capan-2, 120 h, 96-well, read-out: Anti-Cell Proliferation IC50 (nM), CAPAN-2
Method: as §1

[1] = system: Phospho-ERK in HCT116 (KRAS G13D) cells; test: Kinase phosphorylation assay (Phospho-ERK), HCT116; type: cell-based; settings: Homo sapiens, HCT-116, 3 hours treatment, normalized to β-actin, read-out: pERK ½ IC50 (nM), HCT116
Method: (§2) KRAS mutant cells were plated in clear bottom 96 well plates at a density of 50,000-120,000 cells per well. Cells were allowed to attach overnight and then treated with compounds for 3 hours. After treatment, cells were fixed with 10% buffered formalin for 20 minutes at room temperature, washed with PBS, and then permeabilized with ice cold 100% methanol for 10 minutes to overnight at −20° C. Odyssey Blocking Buffer (LiCOR Biosciences: 927-60001) was added to each well for 1 hour at room temperature prior to incubation with primary antibodies overnight at 4° C. The primary antibodies used were as follows: Phospho-ERK (Cell Signaling: CS-9101) diluted to 1:250 and […] (Cell Signaling: CS-3700) diluted to 1:2000 in Odyssey Blocking Buffer+0.05% Tween20. Plates were washed 3× with Wash Buffer (PBS+0.1% Tween20) and incubated with secondary antibodies for 2 hours at room temperature. The following secondary antibodies were used: goat anti-rabbit-800 (LI-COR: 926-32211) and goat anti-mouse-680 (LICOR: 926-68070) both diluted to 1:2000 in Odyssey Blocking Buffer+0.05% Tween20. […] Phospho-ERK signal was normalized to β-actin signal for each well and the percent of DMSO control values were calculated. IC50 values were calculated using the sigmoidal dose-response (variable slope) equation in GraphPad Prism 4.

PANC0504 (KRAS G12D) = test: Cell proliferation assay Method B (5 days), PANC0504; type: cell-based; settings: Panc 05.04, 120 h, 96-well, read-out: Anti-Cell Proliferation IC50 (nM), PANC0504
Method: as §1

[2] = system: Phospho-ERK in AGS (KRAS G12D) cells; test: Kinase phosphorylation assay (Phospho-ERK), AGS; type: cell-based; settings: 3 hours treatment, normalized to β-actin, read-out: pERK ½ IC50 (nM), AGS
Method: as §2

H23 (KRAS G12C) = test: Cell proliferation assay Method B (5 days), H23; type: cell-based; settings: 120 h, 96-well, read-out: Anti-Cell Proliferation IC50 (nM), H23
Method: as §1

HPAC (KRAS G12D) = test: Cell proliferation assay Method B (5 days), HPAC; type: cell-based; settings: Homo sapiens, 120 h, 96-well, read-out: Anti-Cell Proliferation IC50 (nM), HPAC
Method: as §1

GP2D (KRAS G12D) [3] = test: Cell proliferation assay (CellTiter-Glo, 72 hours), GP2D; type: cell-based; settings: GP2d, 72 h, 384-well, CellTiter-Glo 2.0
Method: as §1, with “Two” for “Method B: Two”, “384-well white” for “96-well black”, “72 hours” for “5 days”

[4] = system: Phospho-ERK in SW620 (KRAS G12V) cells; test: Kinase phosphorylation assay (Phospho-ERK), SW620; type: cell-based; settings: Homo sapiens, SW-620, 3 hours treatment, normalized to β-actin, read-out: pERK ½ IC50 (nM), SW620
Method: as §2

HCT116 (KRAS G13D) = test: Cell proliferation assay Method B (5 days), HCT116; type: cell-based; settings: Homo sapiens, HCT-116, 120 h, 96-well, read-out: Anti-Cell Proliferation IC50 (nM), HCT116
Method: as §1

AsPC1 (KRAS G12D) = test: Cell proliferation assay Method B (5 days), AsPC1; type: cell-based; settings: Homo sapiens, ASPC1, 120 h, 96-well, read-out: Anti-Cell Proliferation IC50 (nM), AsPC1
Method: as §1

MiaPaCa2 (KRAS G12C) = test: Cell proliferation assay Method B (5 days), MiaPaCa2; type: cell-based; settings: Homo sapiens, MIA PaCa-2, 120 h, 96-well, read-out: Anti-Cell Proliferation IC50 (nM), MiaPaCa2
Method: as §1

SW620 (KRAS G12V) [5] = test: Cell proliferation assay (CellTiter-Glo, 72 hours), SW620; type: cell-based; settings: Homo sapiens, SW-620, 72 h, 384-well, CellTiter-Glo 2.0
Method: as §1, with “Two” for “Method B: Two”, “384-well white” for “96-well black”, “72 hours” for “5 days”

H2291 (KRAS G12F) = test: Cell proliferation assay Method B (5 days), H2291; type: cell-based; settings: Homo sapiens, NCI-H2291, 120 h, 96-well, read-out: Anti-Cell Proliferation IC50 (nM), H2291
Method: as §1

[6] = system: Phospho-ERK in H2291 (KRAS G12F) cells; test: Kinase phosphorylation assay (Phospho-ERK), H2291; type: cell-based; settings: Homo sapiens, NCI-H2291, 3 hours treatment, normalized to β-actin, read-out: pERK ½ IC50 (nM), H2291
Method: as §2

AGS (G12D) = test: Cell proliferation assay (CellTiter-Glo, 72 hours), AGS; type: cell-based; settings: 72 h, 384-well, CellTiter-Glo 2.0
Method: as §1, with “Two” for “Method B: Two”, “384-well white” for “96-well black”, “72 hours” for “5 days”

H358 (KRAS G12C) = test: Cell proliferation assay Method B (5 days), H358; type: cell-based; settings: Homo sapiens, NCI-H358, 120 h, 96-well, read-out: Anti-Cell Proliferation IC50 (nM), H358
Method: as §1

GP2D (KRAS G12D) [7] = test: Cell proliferation assay Method B (5 days), GP2D; type: cell-based; settings: 120 h, 96-well, read-out: Anti-Cell Proliferation IC50 (nM), GP2D
Method: as §1

SW620 (KRAS G12V) [8] = test: Cell proliferation assay Method B (5 days), SW620; type: cell-based; settings: Homo sapiens, SW-620, 120 h, 96-well, read-out: Anti-Cell Proliferation IC50 (nM), SW620
Method: as §1

KRAS G12V = KRAS G12V (Homo sapiens, UniProt P01116, G12V); test: biochemical
KRAS G12D = KRAS G12D (Homo sapiens, UniProt P01116, G12D); test: biochemical
Chain of KRAS G12D (P01116 1-188 isoform P01116-2 G12D): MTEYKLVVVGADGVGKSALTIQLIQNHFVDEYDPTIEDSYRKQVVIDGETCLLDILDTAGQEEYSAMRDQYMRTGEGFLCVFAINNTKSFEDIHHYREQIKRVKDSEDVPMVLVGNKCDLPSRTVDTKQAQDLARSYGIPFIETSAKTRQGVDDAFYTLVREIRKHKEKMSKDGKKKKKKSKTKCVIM

Chain of KRAS G12V (P01116 1-188 isoform P01116-2 G12V): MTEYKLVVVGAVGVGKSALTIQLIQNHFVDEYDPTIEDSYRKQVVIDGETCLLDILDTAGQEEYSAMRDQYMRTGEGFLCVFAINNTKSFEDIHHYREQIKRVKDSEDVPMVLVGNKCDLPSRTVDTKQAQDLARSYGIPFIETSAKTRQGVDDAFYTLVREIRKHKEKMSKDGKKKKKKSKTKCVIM

SMILES | IC50 (PANC0403 (KRAS G12D)) [nM] | IC50 (AGS (KRAS G12D)) [nM] | IC50 (CAPAN-2 (KRAS G12V)) [nM] | IC50 [1] [nM] | IC50 (PANC0504 (KRAS G12D)) [nM] | IC50 [2] [nM] | IC50 (H23 (KRAS G12C)) [nM] | IC50 (HPAC (KRAS G12D)) [nM] | IC50 (GP2D (KRAS G12D) [3]) [nM] | IC50 [4] [nM] | IC50 (HCT116 (KRAS G13D)) [nM] | IC50 (AsPC1 (KRAS G12D)) [nM] | IC50 (MiaPaCa2 (KRAS G12C)) [nM] | IC50 (SW620 (KRAS G12V) [5]) [nM] | IC50 (H2291 (KRAS G12F)) [nM] | IC50 [6] [nM] | IC50 (AGS (G12D)) [nM] | IC50 (H358 (KRAS G12C)) [nM] | IC50 (GP2D (KRAS G12D) [7]) [nM] | IC50 (SW620 (KRAS G12V) [8]) [nM] | other results
C#Cc1c(F)ccc2cc(O)cc(-c3nc4c5c(nc(OC[C@@]67CCCN6C[C@H](F)C7)nc5c3F)N3CCCC[C@H]3CO4)c12 [compound 1, 5-ethynyl-6-fluoro-4-((S)-4-fluoro-2-(((2R,7aS)-2-fluorotetrahydro-1H-pyrrolizin-7a(5H)-yl)methoxy)-8,8a,9,10,11,12-hexahydro-7-oxa-1,3,6,12a-tetraazabenzo[4,5]cyclohepta[1,2,3-de]naphthalen-5-yl)naphthalen-2-ol] | 27.7 | 14.8 | 35.2 | 14.1 | 9 | 3.46 | 47.4 | 18.9 | 2.51 | 3.24 | 474 | 108 | 15.2 | 10.4 | 5.7 | 4.29 | 6.9 | 49.2 | 2.8 | 9.6 | 
CCc1c(F)ccc2cc(O)cc(-c3nc4c5c(nc(OC[C@@]67CCCN6C[C@H](F)C7)nc5c3F)N3CCCC[C@H]3CO4)c12 [compound 2, 5-ethyl-6-fluoro-4-[(8aS)-4-fluoro-2-{[(2R,7aS)-2-fluorotetrahydro-1H-pyrrolizin-7a(5H)-yl]methoxy}-8,8a,9,10,11,12-hexahydro-7-oxa-1,3,6,12a-tetraazabenzo[4,5]cyclohepta[1,2,3-de]naphthalen-5-yl]naphthalen-2-ol] | 76.7 | 86.2 | 60.2 | 93.4 | 44 | 19.6 | 145 | 94.5 | 17.2 | 22.1 | > 3000 | 213 | 68.1 | 41.4 | 37.2 | 65 | 52.3 | 222 | 11.3 | 43.8 | IC50 (KRAS G12V): 1.83 nM; IC50 (KRAS G12D): 3.96 nM
